Source: US11932634B2 (Gilead Sciences, Inc., priority 2021, dated 2024)

Columns and labels:
human DGKα = target: T1, human DGKα (Homo sapiens, UniProt P23743); assay: DGKα Biochemical Activity Assay (ADP-Glo);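 further: recombinant enzyme converting diacylglycerol in lipid micelles with ATP, ADP formed detected by luminescence, IC50 from a four-parameter nonlinear fit, geometric mean across experiments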
T1 construct: purchased Carna Biosciences'; inferred from the same paragraph's 'obtained from Carna Biosciences')

[1] = system: Jurkat NFκB-luciferase cells; assay: Jurkat NFκB-Luciferase Assay; type: cell-based; details: Homo sapiens; Jurkat NFκB-luciferase cells activated with anti-CD3 antibody (OKT3), 2.5 hrs at 37° C., One-Glo Ex; geometric mean; read-out: DGK NFKb Luciferase EC50;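 further: bioluminescence read-out normalized to DMSO basal activation and to maximum enhancement at 1 µM compound, rising signal indicating stronger T-cell activation through DGKα inhibition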
Method: The activity of compounds was tested in a cell based NFκB reporter assay. Jurkat cells that are stably expressing a luciferase reporter construct under the transcriptional control of a NFκB reporter element were activated with an anti-CD3 antibody and luciferase levels were measured with a bioluminescence readout.
The day after, the excess antibody was washed out five times with 100 ul/well of assay medium (RPMI supplemented with 10% fetal bovine serum) using a Biotek EL406 instrument and leaving 20 µl of residual volume in each well. Jurkat NFκB-luciferase cells (Promega #) were harvested and diluted to 1 million cells/ml in assay medium. Sixty nanoliters of test compound dissolved in DMSO at various concentrations were dispensed into 384-well v-bottom polypropylene plates (Greiner) using a Labcyte Echo instrument. Thirty microliters of medium containing the Jurkat NFκB-luciferase cells were then dispensed using a Biotek MicroFlo instrument in each well of the compound-containing plate. The medium/cell/compound mixture was mixed with a Bravo instrument and 20 ul/well of the mixture was transferred to the anti-CD3-coated plate. The assay mixture was then incubated for 2.5 hrs at 37° C. followed by equilibration at 25° C. for 30 min. Forty microliters of One-Glo Ex (Promega) was then added to the assay mixture and luciferase activity was read on a Envision plate reader 7 minutes later.
Bioluminescence data were normalized based on maximum enhancement (1 micromolar of compound) and on basal activation (DMSO) controls. Least squares curve fittings were performed using a four-parameter variable slope nonlinear regression model. […] EC50 values from multiple experiments were averaged by geometric mean and the standard deviation was calculated.

T1 sequence (P23743 whole entry): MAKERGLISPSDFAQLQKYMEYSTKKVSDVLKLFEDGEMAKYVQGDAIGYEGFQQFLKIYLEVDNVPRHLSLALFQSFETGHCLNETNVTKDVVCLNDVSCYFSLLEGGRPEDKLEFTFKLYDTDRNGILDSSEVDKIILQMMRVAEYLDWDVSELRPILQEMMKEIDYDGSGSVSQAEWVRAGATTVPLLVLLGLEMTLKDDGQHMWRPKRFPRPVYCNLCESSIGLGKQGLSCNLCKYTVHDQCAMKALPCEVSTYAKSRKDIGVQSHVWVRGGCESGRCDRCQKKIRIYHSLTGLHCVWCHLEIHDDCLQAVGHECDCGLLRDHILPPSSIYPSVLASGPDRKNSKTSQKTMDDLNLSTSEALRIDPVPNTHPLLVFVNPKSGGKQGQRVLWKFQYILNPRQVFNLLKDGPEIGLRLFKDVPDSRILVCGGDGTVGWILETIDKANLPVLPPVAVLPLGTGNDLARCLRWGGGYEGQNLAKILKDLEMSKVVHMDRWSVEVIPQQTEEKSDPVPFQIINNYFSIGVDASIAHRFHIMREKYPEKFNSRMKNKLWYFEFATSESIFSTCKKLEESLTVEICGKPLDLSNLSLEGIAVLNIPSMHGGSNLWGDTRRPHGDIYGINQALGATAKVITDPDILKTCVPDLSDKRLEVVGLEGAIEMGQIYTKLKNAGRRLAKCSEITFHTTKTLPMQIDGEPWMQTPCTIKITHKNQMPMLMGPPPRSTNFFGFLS

Row | Compound | IC50 (human DGKα) [nM] | EC50 [1] [nM]
1 | CC(C)(C#Cc1nccc2c1CCCN2c1nc(=O)[nH]c2ccc(F)c(F)c12)C(F)(F)F [Example 133, 5,6-difluoro-4-[5-(4,4,4-trifluoro-3,3-dimethyl-but-1-ynyl)-3,4-dihydro-2H-1,6-naphthyridin-1-yl]-1H-quinazolin-2-one] | 23.2 | 4.47
2 | CC(F)(F)C1(C#Cc2cccc3c2COCCN3c2nc(=O)[nH]c3cccc(F)c23)CC1 [Example 112, 4-(6-((1-(1,1-difluoroethyl)cyclopropyl)ethynyl)-2,3-dihydrobenzo[e][1,4]oxazepin-1(5H)-yl)-5-fluoroquinazolin-2(1H)-one] | 23.6 | 0.973
3 | CC1(C#Cc2cccc(N(CC(F)F)c3nc(=O)[nH]c4cccc(F)c34)c2F)CC1 [Example 61, 4-[N-(2,2-difluoroethyl)-2-fluoro-3-[2-(1-methylcyclopropyl)ethynyl]anilino]-5-fluoro-1H-quinazolin-2-one] | 48.2 | 1.7
4 | [2H]C([2H])([2H])n1c(=O)nc(N2CCOCc3c(C#CC4CCCN4C)cccc32)c2c(F)cccc21 (centres unmarked) [Example 167, 5-fluoro-4-[6-[2-(1-methylpyrrolidin-2-yl)ethynyl]-3,5-dihydro-2H-4,1-benzoxazepin-1-yl]-1-(trideuteriomethyl)quinazolin-2-one] | 18.5 | 11
5 | CC(F)(F)C1(C#Cc2cccc3c2COCCN3c2nc(=O)[nH]c3c(F)ccc(F)c23)CC1 [Example 147] | 51.9 | 2.84
6 | [2H]C([2H])([2H])n1c(=O)nc(N2CCOCc3c(C#CC4(C(F)(F)F)CCN(CC(F)F)C4)cccc32)c2c(F)cccc21 (centres unmarked) [Example 172, 4-[6-[2-[1-(2,2-difluoroethyl)-3-(trifluoromethyl)pyrrolidin-3-yl]ethynyl]-3,5-dihydro-2H-4,1-benzoxazepin-1-yl]-5-fluoro-1-(trideuteriomethyl)quinazolin-2-one] | 8.07 | 1.4
7 | CC(C)(C#N)C#Cc1cccc2c1CCCCN2c1nc(=O)[nH]c2cccc(F)c12 [Example 143, 4-[1-(5-fluoro-2-oxo-1H-quinazolin-4-yl)-2,3,4,5-tetrahydro-1-benzazepin-6-yl]-2,2-dimethyl-but-3-ynenitrile] | 18.4 | 1.75
8 | CC(C)(C#Cc1cccc(N(CC(F)F)c2nc(=O)[nH]c3cccc(F)c23)c1F)C(F)(F)F [Example 60, 4-[N-(2,2-difluoroethyl)-2-fluoro-3-(4,4,4-trifluoro-3,3-dimethyl-but-1-ynyl)anilino]-5-fluoro-1H-quinazolin-2-one] | 122 | 2.53
9 | O=c1nc(N(CC(F)F)c2cccc(C#CC3(C(F)(F)F)CC3)c2F)c2cc(F)ccc2[nH]1 [Example 48, 4-[N-(2,2-difluoroethyl)-2-fluoro-3-[2-[1-(trifluoromethyl)cyclopropyl]ethynyl]anilino]-6-fluoro-1H-quinazolin-2-one] | 62.8 | 5.29
10 | O=c1nc(N(CC(F)F)c2cc(F)cc(C#CC3(C(F)(F)F)CC3)c2)c2c(F)c(F)ccc2[nH]1 [Example 35, 4-[N-(2,2-difluoroethyl)-3-fluoro-5-[2-[1-(trifluoromethyl)cyclopropyl]ethynyl]anilino]-5,6-difluoro-1H-quinazolin-2-one] | 159 | 0.999
11 | [2H]C([2H])([2H])n1c(=O)nc(N2CCCc3c(C#CC4(C(F)(F)F)CC4)cncc32)c2c(F)c(F)ccc21 [Example 160, 5,6-difluoro-1-(methyl-d3)-4-(5-((1-(trifluoromethyl)cyclopropyl)ethynyl)-3,4-dihydro-1,7-naphthyridin-1(2H)-yl)quinazolin-2(1H)-one] | 5.36 | 0.936
12 | [2H]C([2H])([2H])n1c(=O)nc(N(CC(F)F)c2ccnc(C#Cc3cncn3C)c2)c2c(F)cccc21 [Example 136, 4-[2,2-difluoroethyl-[2-[2-(3-methylimidazol-4-yl)ethynyl]-4-pyridyl]amino]-5-fluoro-1-(trideuteriomethyl)quinazolin-2-one] | 26.5 | 84.4
13 | CC(C)(C#N)C#Cc1cc(N(CC(F)F)c2nc(=O)[nH]c3ccc(F)c(F)c23)ccn1 [Example 77, 4-[4-[2,2-difluoroethyl-(5,6-difluoro-2-oxo-1H-quinazolin-4-yl)amino]-2-pyridyl]-2,2-dimethyl-but-3-ynenitrile] | 14.1 | 24.2
14 | CCn1c(=O)nc(N(CC(F)F)c2cc(F)cc(C#CC(C)(C)O)c2)c2c(F)cccc21 [Example 37, 4-[N-(2,2-difluoroethyl)-3-fluoro-5-(3-hydroxy-3-methyl-but-1-ynyl)anilino]-1-ethyl-5-fluoro-quinazolin-2-one] | 54.3 | 39.6
15 | [2H]C([2H])([2H])n1c(=O)nc(N2CCCc3c(C#CC(C)(C)O)cccc32)c2c(Cl)cccc21 [Example 130, 5-chloro-4-[5-(3-hydroxy-3-methyl-but-1-ynyl)-3,4-dihydro-2H-quinolin-1-yl]-1-(trideuteriomethyl)quinazolin-2-one] | 5.49 | 16.8
16 | CC1(C#Cc2cncc3c2CCCCN3c2nc(=O)[nH]c3ccc(F)cc23)CC1 [Example 164, 6-fluoro-4-(6-((1-methylcyclopropyl)ethynyl)-2,3,4,5-tetrahydro-1H-pyrido[3,4-b]azepin-1-yl)quinazolin-2(1H)-one] | 5.58 | 0.693
17 | CN(c1cccc(-c2cnc(C3CC3)cn2)c1)c1nc(=O)n(C)c2cc(Cl)ccc12 [Example 11, 7-chloro-4-[3-(5-cyclopropylpyrazin-2-yl)-N-methyl-anilino]-1-methyl-quinazolin-2-one] | 4.02 | 0.709
18 | [2H]C([2H])([2H])n1c(=O)nc(N(CC(F)F)c2cc(F)cc(C#CC(C)(C)C#N)c2)c2c(F)c(F)ccc21 [Example 68, 4-[3-[2,2-difluoroethyl-[5,6-difluoro-2-oxo-1-(trideuteriomethyl)quinazolin-4-yl]amino]-5-fluoro-phenyl]-2,2-dimethyl-but-3-ynenitrile] | 3.29 | 2.53
19 | [2H]C([2H])([2H])n1c(=O)nc(N(CC(F)F)c2ccnc(C#CC(C)(C)O)c2F)c2c(F)cccc21 [Example 128, 4-[2,2-difluoroethyl-[3-fluoro-2-(3-hydroxy-3-methyl-but-1-ynyl)-4-pyridyl]amino]-5-fluoro-1-(trideuteriomethyl)quinazolin-2-one] | 7.36 | 41.2
20 | [2H]C([2H])([2H])n1c(=O)nc(N(CC(F)F)c2ccnc(C#Cc3cnn(C)c3)c2)c2c(F)c(F)ccc21 [Example 120, 4-[2,2-difluoroethyl-[2-[2-(1-methylpyrazol-4-yl)ethynyl]-4-pyridyl]amino]-5,6-difluoro-1-(trideuteriomethyl)quinazolin-2-one] | 5.77 | 34.9
21 | [2H]C([2H])([2H])n1c(=O)nc(N2CCCOc3c(C#CC4(C)CC4)cccc32)c2c(F)cccc21 [Example 84, 5-fluoro-4-[9-[2-(1-methylcyclopropyl)ethynyl]-3,4-dihydro-2H-1,5-benzoxazepin-5-yl]-1-(trideuteriomethyl)quinazolin-2-one] | 3.67 | 0.461
22 | CCC(O)(C#Cc1cccc2c1CCCN2c1nc(=O)[nH]c2cccc(F)c12)CC [Example 57, 4-[5-(3-ethyl-3-hydroxy-pent-1-ynyl)-3,4-dihydro-2H-quinolin-1-yl]-5-fluoro-1H-quinazolin-2-one] | 150 | 9.99
